Legend:
[1] = molecular target: T1, EiCsm6 (Enterococcus italicus, UniProt E6LHV2); assay: LC-MS degradation assay; RNaseAlert activation assay; assay type: biochemical; settings: 25 uM cA6 and 25 uM protein, 37 °C, 1 h; also allosteric activator at CARF domain
T1 construct: gene csm6; recombinant from E. coli BL21 Star (DE3); N-terminal His6-TEV tag cut; full gene; homodimer, ligand site at the CARF domain interface
T1 sequence (E6LHV2 1-430): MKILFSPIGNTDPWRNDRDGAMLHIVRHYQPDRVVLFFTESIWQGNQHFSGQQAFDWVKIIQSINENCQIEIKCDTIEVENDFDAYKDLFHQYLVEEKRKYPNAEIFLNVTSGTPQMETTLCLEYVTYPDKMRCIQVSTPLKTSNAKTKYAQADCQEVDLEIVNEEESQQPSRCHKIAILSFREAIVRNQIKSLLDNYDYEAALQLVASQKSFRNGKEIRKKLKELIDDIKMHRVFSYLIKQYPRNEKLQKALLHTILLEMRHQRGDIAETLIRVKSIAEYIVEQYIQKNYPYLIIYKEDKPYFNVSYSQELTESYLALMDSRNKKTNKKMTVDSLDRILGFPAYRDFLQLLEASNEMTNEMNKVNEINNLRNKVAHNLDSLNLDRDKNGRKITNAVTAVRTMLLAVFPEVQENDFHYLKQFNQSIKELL

[2] = molecular target: T1, EiCsm6; assay: fluorogenic RNaseAlert ribonuclease assay, initial velocities, variable Hill fit; assay type: biochemical; settings: 5 nM EiCsm6, 10 mM HEPES pH 7.5, 50 mM KCl; allosteric activator at CARF domain, read-out HEPN RNase
[3] = molecular target: T1, EiCsm6; assay: X-ray crystal structure of the complex, […] Å; assay type: binding; settings: bound at the CARF domain dimer interface, one cFA6 per homodimer
[4] = molecular target: the molecule itself; assay: crystal structure; EiCsm6 (120 uM) co-crystallised with the cA6 mimic cFA6 (288 uM); 100 mM HEPES pH 7.5, 1.6 M ammonium sulfate, 25 mM lithium perchlorate; space group P1, four homodimers in the asymmetric unit; 2.4 A

## Nc1ncnc2c1ncn2[C@@H]1O[C@@H]2COP(=O)(O)O[C@H]3[C@@H](O)[C@H](n4cnc5c(N)ncnc54)O[C@@H]3COP(=O)(O)O[C@H]3[C@@H](O)[C@H](n4cnc5c(N)ncnc54)O[C@@H]3COP(=O)(O)O[C@H]3[C@@H](O)[C@H](n4cnc5c(N)ncnc54)O[C@@H]3COP(=O)(O)O[C@H]3[C@@H](O)[C@H](n4cnc5c(N)ncnc54)O[C@@H]3COP(=O)(O)O[C@H]3[C@@H](O)[C@H](n4cnc5c(N)ncnc54)O[C@@H]3COP(=O)(O)O[C@H]2[C@H]1O [cA6]
[1]
  LC-MS degradation assay; RNaseAlert activation assay: revealing that cA6 was efficiently degraded to yield a mixture of products

## Nc1ncnc2c1ncn2[C@@H]1O[C@@H]2COP(=O)(O)O[C@H]3[C@@H](F)[C@H](n4cnc5c(N)ncnc54)O[C@@H]3COP(=O)(O)O[C@H]3[C@@H](F)[C@H](n4cnc5c(N)ncnc54)O[C@@H]3COP(=O)(O)O[C@H]3[C@@H](F)[C@H](n4cnc5c(N)ncnc54)O[C@@H]3COP(=O)(O)O[C@H]3[C@@H](F)[C@H](n4cnc5c(N)ncnc54)O[C@@H]3COP(=O)(O)O[C@H]3[C@@H](F)[C@H](n4cnc5c(N)ncnc54)O[C@@H]3COP(=O)(O)O[C@H]2[C@H]1F [cFA6, 2’-,2’’-,2’’’,2’’’’,2’’’’’,2’’’’’’-hexadeoxy-2’-,2’’,2’’’,2’’’’,2’’’’’,2’’’’’’-hexafluoro-cyclic hexaadenosine monophosphate]
[2]
  EC50: 170 nM
[3]
  X-ray crystal structure of the complex, 2.4 Å: we co-crystallized EiCsm6 with cFA6 and determined the structure of the complex

B1: Enterococcus italicus Csm6 (EiCsm6), wild type (enzyme)
chain: MKILFSPIGNTDPWRNDRDGAMLHIVRHYQPDRVVLFFTESIWQGNQHFSGQQAFDWVKIIQSINENCQIEIKCDTIEVENDFDAYKDLFHQYLVEEKRKYPNAEIFLNVTSGTPQMETTLCLEYVTYPDKMRCIQVSTPLKTSNAKTKYAQADCQEVDLEIVNEEESQQPSRCHKIAILSFREAIVRNQIKSLLDNYDYEAALQLVASQKSFRNGKEIRKKLKELIDDIKMHRVFSYLIKQYPRNEKLQKALLHTILLEMRHQRGDIAETLIRVKSIAEYIVEQYIQKNYPYLIIYKEDKPYFNVSYSQELTESYLALMDSRNKKTNKKMTVDSLDRILGFPAYRDFLQLLEASNEMTNEMNKVNEINNLRNKVAHNLDSLNLDRDKNGRKITNAVTAVRTMLLAVFPEVQENDFHYLKQFNQSIKELL
notes: Csm6 ribonuclease (CARF and HEPN domains) of the type III CRISPR-Cas system of Enterococcus italicus DSM-15952; gene amplified from genomic DNA; Cloned into the 1B vector (Addgene 29653): N-terminal hexahistidine tag followed by a TEV site, removed with TEV protease; Crystallised with the small-molecule ligand cFA6 (PDB 6TUG) or with cA6; also called WT EiCsm6; source: E. coli BL21 Star (DE3), …
[4]
  stoichiometry N: 2
